{
  "source": "patent US20180280485A1",
  "about": "“THIORETINAMIDE COMPOSITIONS FOR THE APOPTOSIS OF MALIGNANT CELLS WHILE PREVENTING THE APOPTOSIS OF NORMAL CELLS AND RELATED METHODS” (priority 2017, published 2018)",
  "key": {"[1]": {"system": "human adenocarcinoma cells", "experiment": "Growth of cultured human adenocarcinoma cells (Example 7)", "assay_type": "cell-based", "details": "for cell growth (10^5): cell number day 4, 10^5 cells passaged day 0, no addition 7.4 ± 2.7; for cell growth (10^5) / cell growth (% of control): TR2Co/TR 30 mg/dL, DATS/NBS 1.0 mg/dL; for cell growth (% of control): day 4; for inhibition of growth of cultured human adenocarcinoma cells: each compound alone, Table 2", "protocol": "Human adenocarcinoma cells were cultured in RPMI medium with added fetal bovine serum and antibiotics, as reported by McCully K S et al in Research Communications in Chemical Pathology and Pharmacology, 1992; 77: 125-128 and reviewed by Ariga T et al in Biofactors 2006; 26: 93-103. Equal numbers (10^5) of adenocarcinoma cells were trypsinized and passaged on day 0, and the cells were refed with media containing test compounds on days 1 and 3. Cell numbers were determined by trypsinization on day 4. Thioretinaco (TR2Co) and thioretinamide (TR) were synthesized, as previously described (McCully U.S. Pat. No. 4,618,685; McCully U.S. Pat. No. 4,925,931) and dissolved in absolute ethanol. Authentic diallyl trisulfide ([…]) and napabucasin (NBS) were solubilized in propylene glycol. Propylene glycol (PG) was added to the ethanol solutions of the test compounds, the ethanol was evaporated under reduced pressure at 37° C., and the resulting solutions in propylene glycol were added to the culture media."}, "[2]": {"system": "human colon carcinoma cells", "details": "in vitro; read-out: inhibitory concentration (IC50) against proliferation; cited from earlier work"}, "Caenorhabtidis elegans": {"system": "Caenorhabtidis elegans", "details": "exposure to diallyl trisulfide; cited from earlier work"}, "[3]": {"system": "Normal control cell lines", "details": "versus human leukemia and myeloma cell lines; cited from earlier work"}, "[4]": {"experiment": "Toxicity in animal tests or human trials", "assay_type": "in vivo", "details": "7.5 mg/70 kg/day to 300 mg/70 kg/day"}, "[5]": {"system": "human pancreatic adenocarcinoma cells", "details": "in vitro, cited from earlier work; for growth of cells: without cellular degeneration"}, "normal fibroblasts": {"system": "normal fibroblasts", "details": "in vitro; cited from earlier work"}},
  "data": [
    {"compound": "C=CCSSSCC=C", "note": "[DATS, diallyl trisulfide, reference compound]", "values": [
      {"measurement": "cell growth (10^5)", "setting": "[1]", "value": "2.7 ± 0.57 10^5"},
      {"measurement": "cell growth (% of control)", "setting": "[1]", "value": "36 % of control"},
      {"measurement": "inhibition of growth of cultured human adenocarcinoma cells", "setting": "[1]", "value": "significantly inhibit growth"},
      {"measurement": "IC50", "setting": "[2]", "value": 5, "unit": "µM"},
      {"measurement": "increase of lifespan", "setting": "Caenorhabtidis elegans", "value": "approximately 12%"}
    ]},
    {"compound": "Cc1cc2c(o1)C(=O)c1ccccc1C2=O", "note": "[FHQ3, 2-methyl-naphtho[2,3-b]furan-4,9 dione]", "values": [
      {"measurement": "increase in concentration required to produce apoptosis and growth inhibition in normal control cell lines", "setting": "[3]", "value": 10, "unit": "fold"}
    ]},
    {"compound": "O=C(O)Cc1cc2c(o1)C(=O)c1ccccc1C2=O", "note": "[NBS, 2-carboxymethyl-naphtho[2,3-b]furan-4,9-dione, reference compound]", "values": [
      {"measurement": "cell growth (10^5)", "setting": "[1]", "value": "2.3 ± 0.52 10^5"},
      {"measurement": "cell growth (% of control)", "setting": "[1]", "value": "28 % of control"},
      {"measurement": "inhibition of growth of cultured human adenocarcinoma cells", "setting": "[1]", "value": "significantly inhibit growth"}
    ]},
    {"compound": "CC1=C(/C=C/C(C)=C/C=C/C(C)=C/C(=O)NC2CCSC2=O)C(C)(C)CCC1", "note": "(centres unmarked) [TR, N-homocysteine thiolactonyl retinamide]", "values": [
      {"measurement": "cell growth (10^5)", "setting": "[1]", "value": "1.4 ± 0.50 10^5"},
      {"measurement": "cell growth (% of control)", "setting": "[1]", "value": "19 % of control"},
      {"measurement": "inhibition of growth of cultured human adenocarcinoma cells", "setting": "[1]", "value": "significantly inhibit growth"},
      {"measurement": "toxicity (weight loss, nausea, impairment of liver function, headache, skin lesions)", "setting": "[4]", "value": "no evidence of toxicity"},
      {"measurement": "growth of cells", "setting": "[5]", "value": "inhibited"},
      {"measurement": "lactate production", "setting": "[5]", "value": "increased"},
      {"measurement": "growth and lactate production", "setting": "normal fibroblasts", "value": "unaffected"}
    ]},
    {"compound": "CC1=C(/C=C/C(C)=C/C=C/C(C)=C/CO)C(C)(C)CCC1", "note": "[retinol, reference compound]", "values": [
      {"measurement": "toxicity (weight loss, nausea, impairment of liver function, headache, skin lesions)", "setting": "[4]", "value": "no evidence of toxicity"}
    ]},
    {"compound": "N-homocysteine thiolactonyl retinamido cobalamin [TR2Co]", "values": [
      {"measurement": "cell growth (10^5)", "setting": "[1]", "value": "2.5 ± 0.82 10^5"},
      {"measurement": "cell growth (% of control)", "setting": "[1]", "value": "33 % of control"},
      {"measurement": "inhibition of growth of cultured human adenocarcinoma cells", "setting": "[1]", "value": "significantly inhibit growth"},
      {"measurement": "growth of cells", "setting": "[5]", "value": "inhibited"},
      {"measurement": "lactate production", "setting": "[5]", "value": "increased"},
      {"measurement": "growth and lactate production", "setting": "normal fibroblasts", "value": "unaffected"}
    ]}
  ]
}
